# Data published in ChEMBL document CHEMBL1147867, “Identification of antitumour activity of novel derivatives of 8-aryl-2,6,7,8-tetrahydroimidazo[2,1-c][1,2,4]triazine-3,4-dione and 8-aryl-4-imino-2,3,7,8-tetrahydroimidazo[2,1-c][1,2,4]triazin-3(6H)-one” (Bioorg Med Chem, 2007).
# What was measured:
# Staphylococcus aureus = test: Antibacterial activity against Staphylococcus aureus after 24 hrs by microdilution broth method; assay type: functional
# Escherichia coli = test: Antibacterial activity against Escherichia coli after 24 hrs by microdilution broth method; assay type: functional
# [1] = tested on: Staphylococcus epidermidis; test: Antibacterial activity against Staphylococcus epidermidis after 24 hrs by microdilution broth method; assay type: functional
# HeLa [2] = test: Cytotoxicity against human HeLa cells at 50 ug/ml after 72 hrs; assay type: functional
# [3] = Acute toxicity in mouse; assay type: organism-based; conditions: in vivo
# T47D [4] = test: Cytotoxicity against human T47D cells at 50 ug/ml after 72 hrs; assay type: functional
# RPMI-8226 [5] = test: Cell viability in human RPMI 8226 ECACC 87012702 cancer cells at 100 uM after 24 hrs by MTT assay; assay type: functional
# HeLa [6] = test: Cytotoxicity against human HeLa cells at 10 ug/ml after 72 hrs; assay type: functional
# [7] = Cell viability in HSF cells at 1 uM after 24 hrs by MTT assay; assay type: cell-based, Fibroblast; conditions: human, read-out: Activity
# RPMI-8226 [8] = test: Cell viability in human RPMI 8226 ECACC 87012702 cancer cells at 50 uM after 24 hrs by MTT assay; assay type: functional
# A549 [9] = test: Anticancer activity against human A549 cells at 50 ug/ml after 72 hrs; assay type: functional; conditions: A549, 72 h
# [10] = Cell viability in HSF cells at 100 uM after 24 hrs by MTT assay; assay type: functional, Homo sapiens, Fibroblast
# [11] = Cytotoxicity against Vero cells at 50 ug/ml after 72 hrs; assay type: cell-based; conditions: chlorocebus sabaeus, read-out: Inhibition
# RPMI-8226 [12] = test: Cell viability in human RPMI 8226 ECACC 87012702 cancer cells at 1 uM after 24 hrs by MTT assay; assay type: functional
# [13] = Cytotoxicity against human LS180 cells at 50 ug/ml after 72 hrs; assay type: functional; conditions: LS180, 72 h
# [14] = Cytotoxicity against Vero cells at 10 ug/ml after 72 hrs; assay type: cell-based; conditions: chlorocebus sabaeus, read-out: Inhibition
# A549 [15] = test: Anticancer activity against human A549 cells at 10 ug/ml after 72 hrs; assay type: functional; conditions: A549, 72 h
# T47D [16] = test: Cytotoxicity against human T47D cells at 10 ug/ml after 72 hrs; assay type: functional
# [17] = Cytotoxicity against human LS180 cells at 10 ug/ml after 72 hrs; assay type: functional; conditions: LS180, 72 h
# [18] = Cell viability in HSF cells at 50 uM after 24 hrs by MTT assay; assay type: cell-based, Fibroblast; conditions: human, read-out: Activity
MIC (Staphylococcus aureus) [µM],MIC (Escherichia coli) [µM],MIC [1] [µM],SMILES,inhibition at 50 µg/mL (HeLa [2]) [%],LD50 [3] [mg/kg],inhibition at 50 µg/mL (T47D [4]) [%],Activity (RPMI-8226 [5]) [%],inhibition at 10 µg/mL (HeLa [6]) [%],"viability at 24 h, 1 µM [7] [%]",Activity (RPMI-8226 [8]) [%],inhibition at 50 µg/mL (A549 [9]) [%],Activity [10] [%],"cytotoxicity at 72 h, 50 ug/ml [11] [%]",Activity (RPMI-8226 [12]) [%],inhibition at 50 µg/mL [13] [%],"cytotoxicity at 72 h, 10 ug/ml [14] [%]",inhibition at 10 µg/mL (A549 [15]) [%],inhibition at 10 µg/mL (T47D [16]) [%],inhibition at 10 µg/mL [17] [%],"viability at 24 h, 50 µM [18] [%]"
35.8,35.8,71.5,CC1(C)S[C@@H]2[C@H](NC(=O)[C@H](N)c3ccccc3)C(=O)N2[C@H]1C(=O)O [AMPICILLIN],–,–,–,–,–,–,–,–,–,–,–,–,–,–,–,–,–
–,–,–,COc1ccccc1N1CCn2c1n[nH]c(=O)c2=O,8,1100,9,85,5,103,90,39,94,17,90,29,26,0,1,30,101
–,–,–,O=c1[nH]nc2n(c1=O)CCN2c1cccc(Cl)c1,38,> 2000,0,62,27,95,68,0,91,24,89,0,11,0,0,0,91
–,–,–,Cc1ccc(N2CCn3c2n[nH]c(=O)c3=O)cc1,11,1800,22,83,0,93,91,31,92,0,95,0,0,20,14,2,97
–,–,–,N=c1c(=O)[nH]nc2n1CCN2c1ccc(Cl)cc1,0,–,27,64,8,98,76,27,74,0,94,5,0,25,16,0,84
–,–,–,O=c1[nH]nc2n(c1=O)CCN2c1ccc(Cl)c(Cl)c1,–,–,–,25,–,109,35,–,90,–,98,–,–,–,–,–,90
–,–,–,N=c1c(=O)[nH]nc2n1CCN2c1ccccc1Cl,0,–,0,93,0,100,94,16,101,2,93,2,0,6,0,6,104
–,–,–,N=c1c(=O)[nH]nc2n1CCN2c1cccc(Cl)c1,2,–,31,–,6,–,–,50,–,0,–,1,0,36,3,0,–
–,–,–,N/N=C1\NCCN1c1cccc(Cl)c1,0,–,0,–,0,–,–,–,–,10,–,0,0,–,5,8,–
–,–,–,Cc1ccccc1N1CCn2c1n[nH]c(=O)c2=O,0,–,0,133,0,104,121,29,108,0,101,0,0,24,0,0,110
–,–,–,Cc1ccc(N2CCN/C2=N\N)cc1,0,–,17,–,3,–,–,–,–,9,–,15,0,–,12,11,–
–,–,–,Cc1cccc(N2CCn3c2n[nH]c(=O)c3=O)c1C,0,–,22,–,0,–,–,0,–,18,–,0,18,0,21,0,–
–,–,–,N=c1c(=O)[nH]nc2n1CCN2c1ccccc1,34,–,3,106,30,101,103,38,106,30,95,1,26,7,0,0,103
–,–,–,COc1ccc(N2CCn3c2n[nH]c(=O)c3=O)cc1,0,1500,21,99,6,94,99,0,94,10,98,46,0,0,7,0,92
–,–,–,N/N=C1\NCCN1c1ccccc1Cl,0,–,27,–,2,–,–,–,–,0,–,0,0,–,22,7,–
–,–,–,O=c1[nH]nc2n(c1=O)CCN2c1ccccc1,0,1400,0,86,0,93,96,17,94,30,96,12,7,0,0,0,95
12.1,12.1,6,O=C(N[C@H](CO)[C@H](O)c1ccc([N+](=O)[O-])cc1)C(Cl)Cl [CHLORAMPHENICOL],–,–,–,–,–,–,–,–,–,–,–,–,–,–,–,–,–
